Test results: patent US6716883B1, “Composition useful to treat periodontal disease” (priority 1998, dated 2004)

Legend:
[1] = tested on: rat bone marrow cultures; test: Mineral levels in rat bone marrow cultures treated with BaP; assay type: cell-based; settings: resveratrol and BaP together
[2] = tested on: IL-1 Beta; settings: Casper et al. 1999; cited from earlier work

Oc1ccc(C=Cc2cc(O)cc(O)c2)cc1 [resveratrol, 3,5,4′-trihydroxystilbene]
reversal of BaP effects on mineral levels ([1]; BaP 10^−8M): complete reversal
reversal of BaP effects on mineral levels ([1]; higher concentrations of BaP): partial reversal
induction of IL-1 Beta by AhR ligands [2]: prevent the induction
